The record followed here is BindingDB's records for doi:10.1021/jm00006a011 (Merck Sharp & Dohme Research Laboratories, 1995).

This assay addresses Substance-P receptor (Homo sapiens, UniProt P25103). Description: Binding affinity at human Tachykinin receptor 1 expressed in CHO cells by [125 I][…]-substance P displacement.

Substance-P receptor, sequence (P25103 whole entry): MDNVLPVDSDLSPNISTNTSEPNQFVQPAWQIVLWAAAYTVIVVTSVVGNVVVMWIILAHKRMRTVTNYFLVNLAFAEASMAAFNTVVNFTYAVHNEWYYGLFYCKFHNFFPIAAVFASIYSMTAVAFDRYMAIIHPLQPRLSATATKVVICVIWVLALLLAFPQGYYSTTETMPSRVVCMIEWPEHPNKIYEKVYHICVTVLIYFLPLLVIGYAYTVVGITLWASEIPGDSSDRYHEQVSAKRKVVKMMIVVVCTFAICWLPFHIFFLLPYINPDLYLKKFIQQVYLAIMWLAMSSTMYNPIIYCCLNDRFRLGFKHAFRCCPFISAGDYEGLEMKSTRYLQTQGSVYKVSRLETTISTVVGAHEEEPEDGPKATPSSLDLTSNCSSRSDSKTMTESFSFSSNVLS

As for `O=c1oc(Cc2c[nH]c3ccccc23)c(O)n1Cc1cc(C(F)(F)F)cc(C(F)(F)F)c1`, the IC50 (as a rule, the concentration that inhibits the measured activity by half) came to 0.022 µM.
